{"source": "patent US7141603B2", "about": "“Antitumor agents” (The Regents of The University California, priority 1999, dated 2006)", "key": {"[1]": {"system": "8392 (B-cell leukemia/lymphoma) cells", "experiment": "Test A in vitro cytotoxicity, 2 hour exposure, [3H]-thymidine incorporation", "format": "cell-based", "conditions": "read-out: 2 hour IC50 8392, mean ± 1 standard deviation", "protocol": "(§1) To assess cytotoxic effects, various concentrations of compounds of the invention were added to cultures of MV522 (human lung carcinoma cell line), HL60 (myeloid leukemia cells), and 8392 (B-cell leukemia/lymphoma) cells for 48 hours, then cell growth/viability was determined by trypan blue exclusion. As an alternative to 48 hour continuous exposure studies, cells were plated in liquid culture in 96 well plates, exposed to various concentrations of compounds of the invention for 2 hours, pulsed with [^3H]-thymidine for one to two hours and harvested onto filter papers. The filter papers were added to vials containing scintillation fluid and residual radioactivity determined in a beta (scintillation) counter.\n(§2) Values are reported as mean±1 standard deviation; units are nanomoles per liter; and NT signifies not tested."}, "[2]": {"system": "MV522 lung carcinoma xenograft", "experiment": "Test B in vivo MV522 lung carcinoma xenograft", "conditions": "for MTD reached in Test B: daily IP for 5 consecutive days, MV522 xenograft mice; for relative tumor weight Wt/Wi Day 17 / relative tumor weight Wt/Wi Day 24 / relative tumor weight Wt/Wi Day 31: i.p. QD×5 on days 10-14, day ten = 1.0, dose: 1 14 mg/kg, 2 35 mg/kg, 13 32 mg/kg, 14 28 mg/kg", "description": "Several representative compounds of the invention were chosen for in vivo studies. […] Drug therapy was started 10 days after inoculation on a daily basis via IP route for 5 consecutive days. The animals were monitored for 3 weeks after start of therapy.\nBALB/c nu/nu 4-week old female mice weighing 18–22 g were obtained from Simonsen, Inc. (Gilroy, Calif.) and maintained in the athymic mouse colony of the University of California (San Diego, Calif.) under pathogen free conditions using HEPA filter hoods. Animals were provided with sterilized food and water ad libitum in groups of 5 in plastic cages vented with polyester fiber filter covers. Clean, sterilized gowns, glove, face masks, and shoe and hood covers were worn by all personnel handling the animals. All studies were conducted in accordance with guidelines of the NIH “Guide for Care and Use of Animals” and approved by the University Institutional Animal Care and Use Committee (Protocol 3-006-2)\nThe MV522 lung carcinoma line used for xenograft studies was derived as described by Kelner et al. (Anticancer Res., 15: 867–872; 873–878 (1995)) and maintained in antibiotic-free RPMI 1640 (Mediatech, Herndon, Va.) supplemented with 10% fetal bovine serum and 2 mM glutamine in 37° C. humidified carbon dioxide incubator.\nEach animal was earmarked and followed individually throughout the experiments. Mice received s.c. injections of the parental cell line MV522 using 10 million cells/inoculation over the shoulder. Ten days after s.c. implantation of the MV522 cells, when s.c. tumors were approximately 3×3 mm in size, animals received the desired drug and dosage. The effect of the compound on life span was calculated from median survival.\nAlthough MV522 cells kill mice by metastases, primary s.c. tumor growth over the shoulder was monitored starting on the first day of treatment and at weekly intervals thereafter. Tumor size was measured in two perpendicular diameters. Tumor weights were estimated according to the formula w=(width)^2×length/2). Relative weights (RW) were calculated to standardized variability in tumor size among test groups at initiation of treatment using the formula RW=Wt/wi, where Wi is the tumor weight for a given animal at beginning of drug treatment and Wt is tumor weight at a subsequent time. Animals were necropsied, and organs were examined for evidence of metastases.\nComparison of survival curves between groups of animals was by the method of Kaplan and Meier. For comparison of relative tumor weights between multiple groups of animals, ordinary ANOVA followed by Tukey-Kramer multiple Comparison post ANOVA analysis was performed (Kelner et al. (Anticancer Res., 15: 867–872; 873–878 (1995)). Probability values (p) less than 0.05 were considered statistically significant.\nData was collected using eight animals in the control studies and four animals in each compound study. Values represent relative tumor weight or Wt/Wi (day ten by definition is 1.0). Drug was administered i.p. on days 10, 11, 12, 13, and 14 (QD×5 days)."}, "[3]": {"system": "MV522 (human lung carcinoma cell line)", "experiment": "Test A in vitro cytotoxicity, 2 hour exposure, [3H]-thymidine incorporation", "format": "cell-based", "conditions": "read-out: 2 hour IC50 MV522, mean ± 1 standard deviation", "protocol": "as §1, §2"}, "[4]": {"experiment": "Tolerated dose / toxicity on administration", "conditions": "chronically administered at 35 mg/kg", "description": "As one skilled in the art would recognize, the amount can be varied depending on the method of administration."}, "[5]": {"system": "HL60 (myeloid leukemia cells)", "experiment": "Test A in vitro cytotoxicity, 2 hour exposure, [3H]-thymidine incorporation", "format": "cell-based", "conditions": "read-out: 2 hour IC50 HL60, mean ± 1 standard deviation", "protocol": "as §1, §2"}, "[6]": {"system": "Dunning leukemia", "conditions": "rats with Dunning leukemia; cited from earlier work"}, "[7]": {"system": "solid tumor systems", "conditions": "cited from earlier work"}}}
{"smiles": "CC1=C2C=C(CO)C=C2C(=O)C(C)(O)C12CC2", "note": "(centres unmarked) [Compound 1]", "values": [{"measurement": "IC50", "setting": "[1]", "value": 37, "unit": "µM"}, {"measurement": "MTD reached in Test B", "setting": "[2]", "value": "not"}, {"measurement": "relative tumor weight Wt/Wi Day 17", "setting": "[2]", "value": "1.4 ± 0.7"}, {"measurement": "relative tumor weight Wt/Wi Day 24", "setting": "[2]", "value": "7.0 ± 1.3"}, {"measurement": "relative tumor weight Wt/Wi Day 31", "setting": "[2]", "value": "11.8 ± 3.0"}]}
{"smiles": "CC1=C2C(=CC(CO)=C2CO)C(=O)C(C)(O)C12CC2", "note": "(centres unmarked) [Compound 2]", "values": [{"measurement": "IC50", "setting": "[3]", "value": 11.3, "unit": "µM"}, {"measurement": "toxicity on chronic administration", "setting": "[4]", "value": "without toxicity"}, {"measurement": "MTD reached in Test B", "setting": "[2]", "value": "not"}, {"measurement": "relative tumor weight Wt/Wi Day 17", "setting": "[2]", "value": "2.1 ± 0.2"}, {"measurement": "relative tumor weight Wt/Wi Day 24", "setting": "[2]", "value": "3.3 ± 0.3"}, {"measurement": "relative tumor weight Wt/Wi Day 31", "setting": "[2]", "value": "4.0 ± 0.9"}]}
{"smiles": "CC(=O)OCC1=CC2=C(C)C3(CC3)C(C)(O)C(=O)C2=C1", "note": "(centres unmarked) [Compound 3]", "values": [{"measurement": "IC50", "setting": "[5]", "value": 15.6, "unit": "µM"}, {"measurement": "IC50", "setting": "[1]", "value": 62, "unit": "µM"}, {"measurement": "IC50", "setting": "[3]", "value": 19.6, "unit": "µM"}]}
{"smiles": "CC(=O)OCC1=C(CO)C=C2C(=O)C(C)(O)C3(CC3)C(C)=C21", "note": "(centres unmarked) [Compound 4]", "values": [{"measurement": "IC50", "setting": "[5]", "value": "> 40", "unit": "µM"}, {"measurement": "IC50", "setting": "[3]", "value": 20.4, "unit": "µM"}]}
{"smiles": "CC(=O)OCC1=C(COC(C)=O)C2=C(C)C3(CC3)C(C)(O)C(=O)C2=C1", "note": "(centres unmarked) [Compound 5]", "values": [{"measurement": "IC50", "setting": "[5]", "value": 38.4, "unit": "µM"}]}
{"smiles": "COCC1=CC2=C(C)C3(CC3)C(C)(O)C(=O)C2=C1", "note": "(centres unmarked) [Compound 7]", "values": [{"measurement": "IC50", "setting": "[5]", "value": 6, "unit": "µM"}]}
{"smiles": "COCC1=C(CO)C=C2C(=O)C(C)(O)C3(CC3)C(C)=C21", "note": "(centres unmarked) [Compound 8]", "values": [{"measurement": "IC50", "setting": "[5]", "value": "> 80", "unit": "µM"}, {"measurement": "IC50", "setting": "[3]", "value": "> 80", "unit": "µM"}]}
{"smiles": "COCC1=C(COC)C2=C(C)C3(CC3)C(C)(O)C(=O)C2=C1", "note": "(centres unmarked) [Compound 9]", "values": [{"measurement": "IC50", "setting": "[5]", "value": 49.8, "unit": "µM"}, {"measurement": "IC50", "setting": "[3]", "value": "> 50", "unit": "µM"}]}
{"smiles": "CC(=O)N[C@@H](CSCC1=C(C)C=C2C(=O)C(C)(O)C3(CC3)C(C)=C21)C(=O)O", "note": "(some centres unmarked) [Compound 13]", "values": [{"measurement": "IC50", "setting": "[3]", "value": 10, "unit": "µM"}, {"measurement": "relative tumor weight Wt/Wi Day 17", "setting": "[2]", "value": "2.3 ± 0.5"}, {"measurement": "relative tumor weight Wt/Wi Day 24", "setting": "[2]", "value": "4.1 ± 0.8"}, {"measurement": "relative tumor weight Wt/Wi Day 31", "setting": "[2]", "value": "4.7 ± 1.5"}]}
{"smiles": "CC(=O)N[C@@H](CSCC1=C(C)C=C2C(=O)C(C)(O)C3(CC3)C(C)=C21)C(=O)N[C@H](C)c1ccccc1", "note": "(some centres unmarked) [Compound 14]", "values": [{"measurement": "IC50", "setting": "[3]", "value": 3.05, "unit": "µM"}, {"measurement": "relative tumor weight Wt/Wi Day 17", "setting": "[2]", "value": "3.2 ± 0.6"}, {"measurement": "relative tumor weight Wt/Wi Day 24", "setting": "[2]", "value": "4.1 ± 0.8"}, {"measurement": "relative tumor weight Wt/Wi Day 31", "setting": "[2]", "value": "6.0 ± 1.8"}]}
{"smiles": "CC1=C2C(=CC(C)(C)[C@@H]2O)C(=O)[C@](C)(O)C12CC2", "note": "[Illudin M]", "values": [{"measurement": "life span", "setting": "[6]", "value": "significantly increased"}, {"measurement": "therapeutic index", "setting": "[7]", "value": "low"}]}
